The source of these data is patent US11046699B2, “Pyrazolo-pyrimidin-amino-cycloalkyl compounds and their therapeutic uses” (RAPT THERAPEUTICS, INC., priority 2018, dated 2021).

Molecules are shown by their SMILES. Bounds are passed on as bounds.

The assay has as its target GCN2 (Homo sapiens, UniProt Q9P2K8). Kind of assay: GCN2 enzymatic endpoint assay: phosphorylation of GFP-eIF2α measured by TR-FRET (Lanthascreen). Particulars: tested as described in Example 77; compound and/or hydrochloride, dihydrochloride or trifluoroacetic acid salt; read-out: IC 50 Activity. The assay is classed as biochemical. In short, it runs like this: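 Phosphorylated eIF2α read by Lanthascreen TR-FRET (acceptor 520 nm over donor 495 nm) after EDTA stop. The reaction ran 90 min at room temperature on 80 nM GFP-eIF2α with 2 μM ATP.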
A general note: In TR-FRET formats the signal depends on donor and acceptor labels being close together.

GCN2, sequence (Q9P2K8 whole entry): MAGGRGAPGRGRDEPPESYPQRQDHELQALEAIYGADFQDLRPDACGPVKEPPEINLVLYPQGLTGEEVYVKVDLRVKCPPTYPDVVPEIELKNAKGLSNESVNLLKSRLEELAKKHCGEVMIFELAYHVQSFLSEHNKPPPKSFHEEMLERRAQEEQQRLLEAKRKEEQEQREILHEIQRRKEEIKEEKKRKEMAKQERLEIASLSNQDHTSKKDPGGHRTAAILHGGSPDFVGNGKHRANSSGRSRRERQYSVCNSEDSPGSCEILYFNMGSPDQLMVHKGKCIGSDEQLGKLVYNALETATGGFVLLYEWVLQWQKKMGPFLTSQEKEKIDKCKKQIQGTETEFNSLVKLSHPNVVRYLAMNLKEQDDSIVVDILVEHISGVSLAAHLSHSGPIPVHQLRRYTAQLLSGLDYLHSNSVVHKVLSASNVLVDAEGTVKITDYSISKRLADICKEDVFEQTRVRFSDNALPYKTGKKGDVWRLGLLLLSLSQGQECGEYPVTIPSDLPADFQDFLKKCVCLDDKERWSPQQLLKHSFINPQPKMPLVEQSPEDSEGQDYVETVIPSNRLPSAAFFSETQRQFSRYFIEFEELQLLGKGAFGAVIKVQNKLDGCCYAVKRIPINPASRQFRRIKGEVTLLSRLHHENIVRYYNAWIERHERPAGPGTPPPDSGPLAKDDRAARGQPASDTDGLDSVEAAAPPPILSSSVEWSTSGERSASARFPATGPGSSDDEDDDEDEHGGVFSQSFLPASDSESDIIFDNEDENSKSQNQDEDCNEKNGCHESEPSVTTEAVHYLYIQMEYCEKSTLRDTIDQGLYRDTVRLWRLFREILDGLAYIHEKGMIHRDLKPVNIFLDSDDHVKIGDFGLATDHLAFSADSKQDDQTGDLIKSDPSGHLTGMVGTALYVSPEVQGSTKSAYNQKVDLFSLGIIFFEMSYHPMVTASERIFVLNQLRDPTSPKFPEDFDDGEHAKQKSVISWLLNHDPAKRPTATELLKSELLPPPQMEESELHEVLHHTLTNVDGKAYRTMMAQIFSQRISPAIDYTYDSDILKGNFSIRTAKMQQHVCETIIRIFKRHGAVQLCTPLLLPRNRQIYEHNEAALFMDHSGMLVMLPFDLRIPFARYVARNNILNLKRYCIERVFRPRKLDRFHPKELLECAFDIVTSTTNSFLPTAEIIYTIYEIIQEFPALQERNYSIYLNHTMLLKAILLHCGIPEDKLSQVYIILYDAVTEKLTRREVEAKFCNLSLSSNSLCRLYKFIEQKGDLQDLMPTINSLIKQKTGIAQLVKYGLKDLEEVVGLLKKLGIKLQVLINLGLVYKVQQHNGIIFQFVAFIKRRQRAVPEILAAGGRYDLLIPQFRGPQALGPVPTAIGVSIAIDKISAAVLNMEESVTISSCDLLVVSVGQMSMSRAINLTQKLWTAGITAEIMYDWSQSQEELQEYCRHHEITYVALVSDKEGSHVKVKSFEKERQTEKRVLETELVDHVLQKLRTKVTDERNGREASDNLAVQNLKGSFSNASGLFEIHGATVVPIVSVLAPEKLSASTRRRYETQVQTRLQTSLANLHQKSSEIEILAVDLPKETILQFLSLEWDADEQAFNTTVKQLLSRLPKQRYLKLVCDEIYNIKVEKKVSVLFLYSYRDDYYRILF

On to `CNC(=O)[C@]1(C)CC[C@@H](Nc2ncc3c(Br)nn(-c4ccc5nc(OC)ncc5c4)c3n2)C1` [(1R,3R)-3-[[3-bromo-1-(2-methoxy-quinazolin-6-yl)pyrazolo[3,4-d]pyrimidin-6-yl]amino]-N,1-dimethyl-cyclopentane-carboxamide; 2,2,2-trifluoroacetic acid], for which the IC50 is below 0.025 µM. As for `CNC(=O)[C@]1(C)CC[C@@H](Nc2ncc3c(Br)nn(-c4ccc5c(c4)CCN(S(C)(=O)=O)C5)c3n2)C1` [(1R,3R)-3-[[3-bromo-1-(2-methylsulfonyl-3,4-dihydro-1H-isoquinolin-6-yl)pyrazolo [3,4-d]pyrimidin-6-yl]amino]-N,1-dimethyl-cyclopentanecarboxamide], the figure is 0.025 to 0.2 µM; as for `CNC(=O)[C@]1(C)CC[C@@H](Nc2ncc3c(Br)nn(-c4ccc5c(c4)CN(S(C)(=O)=O)CC5)c3n2)C1` [(1R,3R)-3-[[3-bromo-1-(2-methylsulfonyl-3,4-dihydro-1H-isoquinolin-7-yl)pyrazolo [3,4-d]pyrimidin-6-yl]amino]-N,1-dimethyl-cyclopentanecarboxamide], 0.025 to 0.2 µM; as for `CNC(=O)[C@]1(C)CC[C@@H](Nc2ncc3c(Br)nn(-c4ccc5nc(N6CCOCC6)ncc5c4)c3n2)C1` [(1R,3R)-3-[[3-bromo-1-(2-morpholino-quinazolin-6-yl)pyrazolo[3,4-d]pyrimidin-6-yl]amino]-N,1-dimethyl-cyclopentane-carboxamide; 2,2,2-trifluoroacetic acid], 0.025 to 0.2 µM. Regarding `CNC(=O)[C@]1(C)CC[C@@H](Nc2ncc3c(Br)nn(-c4ccc5c(c4)NC(=O)COC5)c3n2)C1` [(1R,3R)-3-[[3-bromo-1-(2-oxo-1,5-dihydro-4,1-benzoxazepin-8-yl)pyrazolo[3,4-d]pyrimidin-6-yl]amino]-N,1-dimethyl-cyclopentanecarboxamide], the IC50 is 0.025 to 0.2 µM. The result for `CNC(=O)[C@]1(C)CC[C@@H](Nc2ncc3c(Br)nn(-c4ccc5[nH]c(=O)ncc5c4)c3n2)C1` [(1R,3R)-3-[[3-bromo-1-(2-oxo-1H-quinazolin-6-yl)pyrazolo[3,4-d]pyrimidin-6-yl]amino]-N,1-dimethyl-cyclopentane-carboxamide; 2,2,2-trifluoroacetic acid] reads 0.025 to 0.2 µM; that for `CNC(=O)[C@]1(C)CC[C@@H](Nc2ncc3c(Br)nn(-c4ccc5c(c4)C(C)(C)CO5)c3n2)C1` [(1R,3R)-3-[[3-bromo-1-(3,3-dimethyl-2H-benzofuran-5-yl)pyrazolo[3,4-d]pyrimidin-6-yl]amino]-N,1-dimethyl-cyclopentane-carboxamide], 0.025 to 0.2 µM; that for `CNC(=O)[C@]1(C)CC[C@@H](Nc2ncc3c(Br)nn(-c4cc(Cl)cc(C#N)c4)c3n2)C1` [(1R,3R)-3-[[3-bromo-1-(3-chloro-5-cyano-phenyl)pyrazolo[3,4-d]pyrimidin-6-yl]amino]-N,1-dimethyl-cyclopentanecarboxamide], 0.025 to 0.2 µM.

On to `CNC(=O)[C@@H]1CC[C@@H](Nc2ncc3c(Br)nn(-c4ccc5ncc(Cl)cc5c4)c3n2)C1` [(1R,3R)-3-[[3-bromo-1-(3-chloro-6-quinolyl)pyrazolo[3,4-d]pyrimidin-6-yl]amino]-N-methyl-cyclopentanecarboxamide], for which the IC50 lay in the range of 0.025 to 0.2 µM.

As to `CNC(=O)[C@]1(C)CC[C@@H](Nc2ncc3c(Br)nn(-c4ccc5c(c4)CNC(=O)C5)c3n2)C1` [(1R,3R)-3-[[3-bromo-1-(3-oxo-2,4-dihydro-1H-isoquinolin-7-yl)pyrazolo [3,4-d]pyrimidin-6-yl]amino]-N,1-dimethyl-cyclopentanecarboxamide], the IC50 lay in the range of 0.025 to 0.2 µM. The result for `CNC(=O)[C@]1(C)CC[C@@H](Nc2ncc3c(Br)nn(-c4ccc5c(c4)OCC(=O)N5)c3n2)C1` [(1R,3R)-3-[[3-bromo-1-(3-oxo-4H-1,4-benzoxazin-7-yl)pyrazolo[3,4-d]pyrimidin-6-yl]amino]-N,1-dimethyl-cyclopentanecarboxamide] reads 0.025 to 0.2 µM.

For the compound `CNC(=O)[C@]1(C)CC[C@@H](Nc2ncc3c(Br)nn(-c4cc(F)c5nc(C)cc(Cl)c5c4)c3n2)C1` [(1R,3R)-3-[[3-bromo-1-(4-chloro-8-fluoro-2-methyl-6-quinolyl)pyrazolo[3,4-d]pyrimidin-6-yl]amino]-N,1-dimethyl-cyclopentanecarboxamide], the IC50 lay within 0.025 to 0.2 µM.

As for `CNC(=O)[C@]1(C)CC[C@@H](Nc2ncc3c(Br)nn(-c4cc(C)c(C#N)c(C)c4)c3n2)C1` [(1R,3R)-3-[[3-bromo-1-(4-cyano-3,5-dimethyl-phenyl)pyrazolo[3,4-d]pyrimidin-6-yl]amino]-N,1-dimethyl-cyclopentanecarboxamide], the IC50 fell in the range of 0.025 to 0.2 µM.

For `CNC(=O)[C@]1(C)CC[C@@H](Nc2ncc3c(Br)nn(-c4ccc5nccc(P(C)(C)=O)c5c4)c3n2)C1` [(1R,3R)-3-[[3-bromo-1-(4-dimethyl-phosphoryl-6-quinolyl)pyrazolo[3,4-d]pyrimidin-6-yl]amino]-N,1-dimethyl-cyclopentanecarboxamide], the IC50 fell in the range of 0.025 to 0.2 µM.

`CCN1C(=O)COc2cc(-n3nc(Br)c4cnc(N[C@@H]5CC[C@@](C)(C(=O)NC)C5)nc43)ccc21` [(1R,3R)-3-[[3-bromo-1-(4-ethyl-3-oxo-1,4-benzoxazin-7-yl)pyrazolo[3,4-d]pyrimidin-6-yl]amino]-N,1-dimethyl-cyclopentane-carboxamide]: the IC50 lay within 0.025 to 0.2 µM.

On to `CNC(=O)[C@]1(C)CC[C@@H](Nc2ncc3c(Br)nn(-c4ccc(-n5ccnc5)cc4)c3n2)C1` [(1R,3R)-3-[[3-bromo-1-(4-imidazol-1-ylphenyl)pyrazolo[3,4-d]pyrimidin-6-yl]amino]-N,1-dimethyl-cyclo-pentanecarboxamide], for which the IC50 lay within 0.025 to 0.2 µM. The result for `CNC(=O)[C@]1(C)CC[C@@H](Nc2ncc3c(Br)nn(-c4ccc5c(c4)OCC(=O)N5C(C)C)c3n2)C1` [(1R,3R)-3-[[3-bromo-1-(4-isopropyl-3-oxo-1,4-benzoxazin-7-yl)pyrazolo[3,4-d]pyrimidin-6-yl]amino]-N,1-dimethyl-cyclopentanecarboxamide] reads 0.025 to 0.2 µM. In the case of `CNC(=O)[C@]1(C)CC[C@@H](Nc2ncc3c(Br)nn(-c4ccc(-c5ccon5)cc4)c3n2)C1` [(1R,3R)-3-[[3-bromo-1-(4-isoxazol-3-ylphenyl)pyrazolo[3,4-d]pyrimidin-6-yl]amino]-N,1-dimethyl-cyclopentane-carboxamide], the IC50 lay within 0.025 to 0.2 µM. The result for `CNC(=O)[C@]1(C)CC[C@@H](Nc2ncc3c(Br)nn(-c4ccc5nccc(OC)c5c4)c3n2)C1` [(1R,3R)-3-[[3-bromo-1-(4-methoxy-6-quinolyl)pyrazolo[3,4-d]pyrimidin-6-yl]amino]-N,1-dimethyl-cyclopentanecarboxamide] reads below 0.025 µM; that for `CNC(=O)[C@]1(C)CC[C@@H](Nc2ncc3c(Br)nn(-c4ccc5c(c4)SCC(=O)N5C)c3n2)C1` [(1R,3R)-3-[[3-bromo-1-(4-methyl-3-oxo-1,4-benzothiazin-7-yl)pyrazolo[3,4-d]pyrimidin-6-yl]amino]-N,1-dimethyl-cyclopentanecarboxamide], 0.025 to 0.2 µM; that for `CNC(=O)[C@]1(C)CC[C@@H](Nc2ncc3c(Br)nn(-c4cnc5c(c4)OCC(=O)N5C)c3n2)C1` [(1R,3R)-3-[[3-bromo-1-(4-methyl-3-oxo-pyrido[3,2-b][1,4]oxazin-7-yl)pyrazolo [3,4-d]pyrimidin-6-yl]amino]-N,1-dimethyl-cyclopentanecarboxamide], 0.025 to 0.2 µM.

In the case of `CNC(=O)[C@]1(C)CC[C@@H](Nc2ncc3c(Br)nn(-c4ccc5nccc(=O)n5c4)c3n2)C1` [(1R,3R)-3-[[3-bromo-1-(4-oxopyrido [1,2-a]pyrimidin-7-yl)pyrazolo[3,4-d]pyrimidin-6-yl]amino]-N,1-dimethyl-cyclopentanecarboxamide], the IC50 fell in the range of 0.025 to 0.2 µM. The result for `CNC(=O)[C@]1(C)CC[C@@H](Nc2ncc3c(Br)nn(-c4ccn5c(=O)ccnc5c4)c3n2)C1` [(1R,3R)-3-[[3-bromo-1-(4-oxopyrido[1,2-a]pyrimidin-8-yl)pyrazolo[3,4-d]pyrimidin-6-yl]amino]-N,1-dimethyl-cyclopentane-carboxamide] reads 0.025 to 0.2 µM; that for `CNC(=O)[C@]1(CC(F)F)CC[C@@H](Nc2ncc3c(Br)nn(-c4ccc(-c5cnccn5)cc4)c3n2)C1` [(1R,3R)-3-[[3-bromo-1-(4-pyrazin-2-ylphenyl)pyrazolo[3,4-d]pyrimidin-6-yl]amino]-1-(2,2-difluoroethyl)-N-methyl-cyclopentanecarboxamide], 0.025 to 0.2 µM. As for `CNC(=O)[C@]1(C)CC[C@@H](Nc2ncc3c(Br)nn(-c4ccc(-n5cccn5)cc4)c3n2)C1` [(1R,3R)-3-[[3-bromo-1-(4-pyrazol-1-ylphenyl)pyrazolo[3,4-d]pyrimidin-6-yl]amino]-N,1-dimethyl-cyclopentane-carboxamide], the figure is 0.025 to 0.2 µM; as for `CNC(=O)[C@]1(C)CC[C@@H](Nc2ncc3c(Br)nn(-c4ccc(-c5cncnc5)cc4)c3n2)C1` [(1R,3R)-3-[[3-bromo-1-(4-pyrimidin-5-ylphenyl)pyrazolo[3,4-d]pyrimidin-6-yl]amino]-N,1-dimethyl-cyclopentane-carboxamide], 0.025 to 0.2 µM; as for `CNC(=O)[C@]1(C)CC[C@@H](Nc2ncc3c(Br)nn(-c4ccc(-c5nccs5)cc4)c3n2)C1` [(1R,3R)-3-[[3-bromo-1-(4-thiazol-2-ylphenyl)pyrazolo[3,4-d]pyrimidin-6-yl]amino]-N,1-dimethyl-cyclopentane-carboxamide], 0.025 to 0.2 µM. The result for `CNC(=O)[C@]1(C)CC[C@@H](Nc2ncc3c(Br)nn(-c4ccc(-c5cncs5)cc4)c3n2)C1` [(1R,3R)-3-[[3-bromo-1-(4-thiazol-5-ylphenyl)pyrazolo[3,4-d]pyrimidin-6-yl]amino]-N,1-dimethyl-cyclopentane-carboxamide] reads 0.025 to 0.2 µM; that for `CNC(=O)[C@]1(C)CC[C@@H](Nc2ncc3c(Br)nn(-c4cncc(C#N)c4)c3n2)C1` [(1R,3R)-3-[[3-bromo-1-(5-cyano-3-pyridyl)pyrazolo[3,4-d]pyrimidin-6-yl]amino]-N,1-dimethyl-cyclopentane-carboxamide], 0.025 to 0.2 µM.
